Assay results reported in patent publication US10487071B2, “Bis-triazole compounds with anti-biofilm and anti-corrosion properties” (Université de Toulon, priority 2015, dated 2019).
Where two headings read alike, the source gives them in different places.

Key:
[1] = Gravimetry (weight loss), corrosion inhibition; settings: mild steel in 1N HCl
Method: The corrosion rates were determined by electrochemical impedance spectroscopy measurements and gravimetry.
Weight loss measurements were performed on 2.5×2.0×0.1 cm rectangular mild steel coupons. The mild steel coupons were immersed into non-de-aerated HCl 1N solution in absence and presence of different concentrations of compounds of general formula (I). After the elapsed time, the coupons were taken out, washed, dried and weighed accurately. Experiments were duplicated.
Weight loss experiments were done to confirm the corrosion inhibitive properties of AS164.
The inhibition efficiency, IE (%), was estimated from the weight loss experiments using the following equation:
[formula] wherein CR^o and CR are respectively the corrosion rate in the absence and presence of AS164.

[2] = system: Pseudoalteromonas ulvae (TC14); test: Anti-adhesion test, strain TC14; type: cell-based; settings: Pseudoalteromonas ulvae; for activity at 200 µM: 15 h; for EC50: read-out: EC50 (effective concentration to inhibit 50% of the adhesion)
Method: (§1) Bacterial strains were grown on Väätänen nine-salts solution (VNSS). When the stationary phase was reached, the bacterial suspension was centrifuged. Cells were then diluted in sterile artificial sea water (ASW) and introduced in microtiter plates (sterile black PS; Nunc, Fisher Scientific, France) with the tested compound (at eight concentrations in three replicates) in the presence of three controls: (i) non-specific staining control, (ii) adhesion control, and (iii) positive control. The maximum percentage of solvent (DMSO 2%) used to dilute the tested compound was also tested in triplicate as additional control. After incubation during an optimized adhesion time (moderately 15 h), non-adhered bacteria were eliminated and adhered cells were quantified after SYTO 61 (1 μM) staining. A percentage of inhibition was calculated per well. A sigmoid dose-response curve was obtained by plotting the percentage of inhibition as a function of the log of tested compound concentration, after mean (n=3) and standard deviation (SD) calculation per triplicate for each concentration. EC50 values were then calculated for each compound.
Pseudoalteromonas ulvae (TC14) was isolated in June 2010 in the Military Harbor of Toulon (Mediterranean Sea, France) as described in F. Brian-Jaisson, A. Ortalo-Magné, L. Guentas-Dombrowsky, F. Armougom, Y. Blache, M. Molmeret, Microb. Ecol., 2014, 68, 94-110.

Paracoccus sp. (4M6) = test: Anti-adhesion test, strain 4M6; type: cell-based; settings: for activity at 200 µM: 15 h, read-out: % of adhesion at 200 μM, 4M6; for EC50: read-out: EC50 (effective concentration to inhibit 50% of the adhesion), 4M6
Method: (§2) The anti-adhesion bioassays and toxicity tests are adapted from those disclosed in M. Camps, J.-F. Briand, L. Guentas-Dombrowsky, G. Culioli, A. Bazire and Y. Blache, Mar. Poll.
as §1

[3] = system: Pseudoalteromonas lipolytica (TC8); test: Anti-adhesion test, strain TC8; type: cell-based; settings: for activity at 200 µM: 15 h, read-out: % of adhesion at 200 μM, TC8; for EC50: read-out: EC50 (effective concentration to inhibit 50% of the adhesion), TC8
Method: as §2, §1

CN(C)CCOc1ccc(CCn2cc(CCCc3cn(CCc4ccc(OCCN(C)C)c(Br)c4)nn3)nn2)cc1Br [AS158]
IE % ([1]; 0.1 ppm): 53.41% | IE % ([1]; 0.3 ppm): 87.00% | IE % ([1]; 0.5 ppm): 91.72% | IE % ([1]; 2 ppm): 95.98% | IE % ([1]; 10 ppm): 97.17% | activity at 200 µM [2]: 55.8 ± 3.8% | activity at 200 µM (Paracoccus sp. (4M6); Paracoccus): 51.5 ± 3% | activity at 200 µM ([3]; Pseudoalteromonas lipolytica): 57 ± 2.2%

CN(C)CCOc1ccc(CCn2cc(CCCCc3cn(CCc4ccc(OCCN(C)C)c(Br)c4)nn3)nn2)cc1Br [AS159, 2-(4-(2-(4-(4-(1-(4-(2-(dimethylamino)ethoxy)-3-bromophenethyl)-1H-1,2,3-triazol-4-yl)butyl)-1H-1,2,3-triazol-1-yl)ethyl)-2-bromophenoxy)-N,N-dimethylethanamine]
IE % ([1]; 0.1 ppm): 39.96% | IE % ([1]; 0.3 ppm): 89.62% | IE % ([1]; 0.5 ppm): 91.95% | IE % ([1]; 2 ppm): 95.63% | IE % ([1]; 10 ppm): 97.30% | activity at 200 µM [2]: 61.5 ± 1% | activity at 200 µM (Paracoccus sp. (4M6); Paracoccus): 57.4 ± 1.6% | activity at 200 µM ([3]; Pseudoalteromonas lipolytica): 58.4 ± 4.3%

CN(C)CCOc1ccc(CCn2cc(CCCCCCc3cn(CCc4ccc(OCCN(C)C)c(Br)c4)nn3)nn2)cc1Br [AS160, 2-(4-(2-(4-(6-(1-(4-(2-(dimethylamino)ethoxy)-3-bromophenethyl)-1H-1,2,3-triazol-4-yl)hexyl)-1H-1,2,3-triazol-1-yl)ethyl)-2-bromophenoxy)-N,N-dimethylethanamine]
IE % ([1]; 0.1 ppm): 71.40% | IE % ([1]; 0.3 ppm): 92.14% | IE % ([1]; 0.5 ppm): 92.66% | IE % ([1]; 2 ppm): 96.06% | IE % ([1]; 10 ppm): 97.03% | activity at 200 µM [2]: 67.4 ± 4% | activity at 200 µM (Paracoccus sp. (4M6); Paracoccus): 59.5 ± 2.2% | activity at 200 µM ([3]; Pseudoalteromonas lipolytica): 54.3 ± 10.8%

CN(C)CCOc1ccc(CCn2cc(-c3cccc(-c4cn(CCc5ccc(OCCN(C)C)c(Br)c5)nn4)c3)nn2)cc1Br [AS161, 2-(4-(2-(4-(3-(1-(4-(2-(dimethylamino)ethoxy)-3-bromophenethyl)-1H-1,2,3-triazol-4-yl)phenyl)-1H-1,2,3-triazol-1-yl)ethyl)-2-bromophenoxy)-N,N-dimethylethanamine]
IE % ([1]; 0.1 ppm): 86.75% | IE % ([1]; 0.3 ppm): 86.21% | IE % ([1]; 0.5 ppm): 94.07% | IE % ([1]; 2 ppm): 97.10% | IE % ([1]; 10 ppm): 98.33%

CN(C)CCCOc1ccc(CCn2cc(CCCc3cn(CCc4ccc(OCCCN(C)C)c(Br)c4)nn3)nn2)cc1Br [AS168, 3-(4-(2-(4-(3-(1-(4-(3-(dimethylamino)propoxy)-3-bromophenethyl)-1H-1,2,3-triazol-4-yl)propyl)-1H-1,2,3-triazol-1-yl)ethyl)-2-bromophenoxy)-N,N-dimethylpropan-1-amine]
activity at 200 µM [2]: 53.8 ± 5.9% | activity at 200 µM (Paracoccus sp. (4M6); Paracoccus): 77.1 ± 2.4% | activity at 200 µM ([3]; Pseudoalteromonas lipolytica): 59.9 ± 6.4%

CN(C)CCCOc1ccc(CCn2cc(-c3cccc(-c4cn(CCc5ccc(OCCCN(C)C)c(Br)c5)nn4)c3)nn2)cc1Br [AS171, 3-(4-(2-(4-(3-(1-(4-(3-(dimethylamino)propoxy)-3-bromophenethyl)-1H-1,2,3-triazol-4-yl)phenyl)-1H-1,2,3-triazol-1-yl)ethyl)-2-bromophenoxy)-N,N-dimethylpropan-1-amine]
IE % ([1]; 0.1 ppm): 53.82% | IE % ([1]; 0.3 ppm): 86.91% | IE % ([1]; 0.5 ppm): 91.72% | IE % ([1]; 2 ppm): 97.25% | IE % ([1]; 10 ppm): 98.51%

CN(C)CCCOc1ccc(CCn2cc(COCc3cn(CCc4ccc(OCCCN(C)C)c(Br)c4)nn3)nn2)cc1Br [AS173, 3-(4-(2-(4-(((1-(4-(3-(dimethylamino)propoxy)-3-bromophenethyl)-1H-1,2,3-triazol-4-yl)methoxy)methyl)-1H-1,2,3-triazol-1-yl)ethyl)-2-bromophenoxy)-N,N-dimethylpropan-1-amine]
IE % ([1]; 0.1 ppm): 46.78% | IE % ([1]; 0.3 ppm): 86.70% | IE % ([1]; 0.5 ppm): 92.47% | IE % ([1]; 2 ppm): 95.77% | IE % ([1]; 10 ppm): 97.95% | activity at 200 µM [2]: 41.7 ± 1.6% | EC50 [2]: 122 ± 59.1 µM | activity at 200 µM (Paracoccus sp. (4M6); Paracoccus): 53.7 ± 4% | activity at 200 µM ([3]; Pseudoalteromonas lipolytica): 51.6 ± 1%

CN(C)CCCOc1ccc(CCn2cc(CNCc3cn(CCc4ccc(OCCCN(C)C)c(Br)c4)nn3)nn2)cc1Br [AS174]
IE % ([1]; 0.1 ppm): 53.41% | IE % ([1]; 0.3 ppm): 87.00% | IE % ([1]; 0.5 ppm): 91.72% | IE % ([1]; 2 ppm): 95.98% | IE % ([1]; 10 ppm): 97.17% | activity at 200 µM [2]: 45 ± 0.8% | activity at 200 µM (Paracoccus sp. (4M6); Paracoccus): 56.3 ± 2.4% | activity at 200 µM ([3]; Pseudoalteromonas lipolytica): 55.4 ± 0.4% | EC50 ([3]; Pseudoalteromonas lipolytica): 185 ± 16.2 µM

COc1ccc(CCn2cc(CCCCc3cn(CCc4ccc(OC)c(Br)c4)nn3)nn2)cc1Br [NT3, 1-(3-bromo-4-methoxyphenethyl)-4-(4-(1-(3-bromo-4-methoxyphenethyl)-1H-1,2,3-triazol-4-yl)butyl)-1H-1,2,3-triazole]
activity at 200 µM [2]: 53.3 ± 6.3% | activity at 200 µM (Paracoccus sp. (4M6); Paracoccus): 50.9 ± 0.3% | activity at 200 µM ([3]; Pseudoalteromonas lipolytica): 56.9 ± 1.7%

COc1ccc(CCn2cc(COCc3cn(CCc4ccc(OC)c(Br)c4)nn3)nn2)cc1Br [NT6, 4-(((1-(3-bromo-4-methoxyphenethyl)-1H-1,2,3-triazol-4-yl)methoxy)methyl)-1-(3-bromo-4-methoxyphenethyl)-1H-1,2,3-triazole]
activity at 200 µM [2]: 38.4 ± 7.4% | EC50 [2]: 160 ± 33.5 µM | activity at 200 µM (Paracoccus sp. (4M6); Paracoccus): 44.9 ± 3.1% | EC50 (Paracoccus sp. (4M6); Paracoccus): 164 ± 6.3 µM | activity at 200 µM ([3]; Pseudoalteromonas lipolytica): 42.7 ± 6.5% | EC50 ([3]; Pseudoalteromonas lipolytica): 181 ± 21.3 µM

COc1ccc(CCn2cc(CNCc3cn(CCc4ccc(OC)c(Br)c4)nn3)nn2)cc1Br [NT7, bis((1-(3-bromo-4-methoxyphenethyl)-1H-1,2,3-triazol-4-yl)methyl)amine]
activity at 200 µM [2]: 37.4 ± 0.1% | EC50 [2]: 138 ± 8.7 µM | activity at 200 µM (Paracoccus sp. (4M6); Paracoccus): 46.3 ± 2.7% | EC50 (Paracoccus sp. (4M6); Paracoccus): 194 ± 8 µM | activity at 200 µM ([3]; Pseudoalteromonas lipolytica): 48.2 ± 2.1% | EC50 ([3]; Pseudoalteromonas lipolytica): 188 ± 3 µM

COc1ccc(CCn2cc(CCCc3cn(CCc4ccc(OC)c(Br)c4)nn3)nn2)cc1Br [NT10, 1-(3-bromo-4-methoxyphenethyl)-4-(3-(1-(3-bromo-4-methoxyphenethyl)-1H-1,2,3-triazol-4-yl)propyl)-1H-1,2,3-triazole]
activity at 200 µM [2]: 50.4 ± 2.2% | activity at 200 µM (Paracoccus sp. (4M6); Paracoccus): 49.2 ± 0.8% | EC50 (Paracoccus sp. (4M6); Paracoccus): 182 ± 15.2 µM | activity at 200 µM ([3]; Pseudoalteromonas lipolytica): 50 ± 4.9%

Oc1ccc(CCn2cc(CCCc3cn(CCc4ccc(O)c(Br)c4)nn3)nn2)cc1Br [NT21, 4-(2-(4-(3-(1-(3-bromo-4-hydroxyphenethyl)-1H-1,2,3-triazol-4-yl)propyl)-1H-1,2,3-triazol-1-yl)ethyl)-2-bromophenol]
activity at 200 µM [2]: 53 ± 4% | activity at 200 µM (Paracoccus sp. (4M6); Paracoccus): 83.4 ± 3.9% | activity at 200 µM ([3]; Pseudoalteromonas lipolytica): 63%

Oc1ccc(CCn2cc(CCCCc3cn(CCc4ccc(O)c(Br)c4)nn3)nn2)cc1Br [NT22, 4-(2-(4-(4-(1-(3-bromo-4-hydroxyphenethyl)-1H-1,2,3-triazol-4-yl)butyl)-1H-1,2,3-triazol-1-yl)ethyl)-2-bromophenol]
activity at 200 µM [2]: 54.4 ± 1.7% | activity at 200 µM (Paracoccus sp. (4M6); Paracoccus): 52.4 ± 2.3% | activity at 200 µM ([3]; Pseudoalteromonas lipolytica): 85.6 ± 2.1%

Oc1ccc(CCn2cc(-c3cccc(-c4cn(CCc5ccc(O)c(Br)c5)nn4)c3)nn2)cc1Br [NT24]
activity at 200 µM [2]: 56.7 ± 1.3% | activity at 200 µM (Paracoccus sp. (4M6); Paracoccus): 61.5 ± 4.2% | activity at 200 µM ([3]; Pseudoalteromonas lipolytica): 66.5 ± 11.6%

Oc1ccc(CCn2cc(COCc3cn(CCc4ccc(O)c(Br)c4)nn3)nn2)cc1Br [NT26]
activity at 200 µM [2]: 40.2 ± 3.3% | EC50 [2]: 127 ± 27.5 µM | activity at 200 µM (Paracoccus sp. (4M6); Paracoccus): 47.8 ± 0.1% | EC50 (Paracoccus sp. (4M6); Paracoccus): 198 ± 4.1 µM | activity at 200 µM ([3]; Pseudoalteromonas lipolytica): 50.3 ± 5.79% | EC50 ([3]; Pseudoalteromonas lipolytica): 195 ± 10.7 µM

CN(C)CCOc1ccc(CCn2cc(-c3ccc(-c4cn(CCc5ccc(OCCN(C)C)cc5)nn4)cc3)nn2)cc1 [SA11, 2-(4-(2-(4-(4-(1-(4-(2-(dimethylamino)ethoxy)phenethyl)-1H-1,2,3-triazol-4-yl)phenyl)-1H-1,2,3-triazol-1-yl)ethyl)phenoxy)-N,N-dimethylethanamine]
IE % ([1]; 0.1 ppm): 90.50% | IE % ([1]; 0.3 ppm): 93.32% | IE % ([1]; 0.5 ppm): 95.49% | IE % ([1]; 2 ppm): 96.95% | IE % ([1]; 10 ppm): 97.11%

CN(C)CCOc1ccc(CCCn2cc(-c3ccc(-c4cn(CCCc5ccc(OCCN(C)C)c(Br)c5)nn4)cc3)nn2)cc1Br [SA31, 2-(4-(3-(4-(4-(1-(3-(4-(2-(dimethylamino)ethoxy)-3-bromophenyl)propyl)-1H-1,2,3-triazol-4-yl)phenyl)-1H-1,2,3-triazol-1-yl)propyl)-2-bromophenoxy)-N,N-dimethylethanamine]
IE % ([1]; 0.1 ppm): 80.79% | IE % ([1]; 0.3 ppm): 93.00% | IE % ([1]; 0.5 ppm): 95.44% | IE % ([1]; 2 ppm): 96.17% | IE % ([1]; 10 ppm): 96.56%

tributyltin oxide [TBTO, reference compound]
EC50 (Paracoccus sp. (4M6); strain 4M6): 4 ± 3 µM | EC50 ([3]; strain TC8): 7 ± 3 µM
